Test results: US9409865B2, “Modulators of methyl modifying enzymes, compositions and uses thereof” (Constellation Pharmaceuticals, Inc., priority 2011, dated 2016)

Columns and labels:
EZH2 = EZH2 (Homo sapiens, UniProt Q15910); test: EZH2 assay (rPRC2, 3H SAM methyl transfer to biotinylated oligonucleosomes); format: biochemical; details: rPRC2, 2 nM EZH2, biotinylated oligonucleosomes, 0.2 μM 3H SAM; top concentration 80 μM
Protocol: (§1) Assays were carried out by mixing rPRC2 together with biotinylated oligonucleosome substrates in the presence of the radio-labeled enzyme co-factor, S-adenosyl-L-methionine (^3H SAM) (Perkin Elmer) and monitoring the enzymatically mediated transfer of tritiated methyl groups from ^3H SAM to histone lysine residues. The amount of resulting tritiated methylhistone product was measured by first capturing the biotinylated oligonucleosomes in streptavidin (SAV) coated FlashPlates (Perkin Elmer), followed by a wash step to remove un-reacted ^3H SAM, and then counting on a TopCount NXT 384 well plate scintillation counter (Perkin Elmer). The final assay conditions for EZH2 were as follows: 50 mM Tris Buffer pH 8.5, 1 mM DTT, 69 μM Brij-35 detergent, 5.0 mM MgCl2, 0.1 mg/mL BSA, 0.2 μM ^3H SAM, 0.2 μM biotinylated oligonucleosomes, 3.6 μM H3K27me3 peptide and 2 nM EZH2.
(§2) Ten point dose response curves were generated by dispensing varying amounts of the 10 mM compound solution in 10 wells of the 384 well plate (Echo; Labcyte), pure DMSO was then used to backfill the wells to insure all wells have the same amount of DMSO. A 12.5 μL volume of the HMT enzyme, H3K27me3 peptide and oligonucleosome substrate in assay buffer was added to each well of the assay plate using a Multidrop Combi (ThermoFisher). Compounds were pre-incubated with the enzyme for 20 min, followed by initiation of the methyltransferase reaction by addition of 12.5 μL of 3H SAM in assay buffer (final volume=25 μL). The final concentrations of compounds ranged from a top default concentration of 80 μM down to 0.16 μM in ten 2-fold dilution steps. Reactions were carried out for 60 minutes and quenched with 20 μL per well of 1.96 mM SAH, 50 mM Tris PH 8.5, 200 mM EDTA. Stopped reactions were transferred to SAV coated Flashplates (Perkin Elmer), incubated for 120 min, washed with a plate washer, and then read on the TopCount NXT (1.0 min/well) to measure the amount of methylhistone product formed during the reaction.

Y641N EZH2 = Y641N EZH2 (Homo sapiens, UniProt Q15910, Y641N); test: Y641N EZH2 assay (as the EZH2 assay, with H3K27Me2 oligonucleosomes as substrate); format: biochemical; details: Y641N EZH2 mutant, reconstituted H3K27Me2 oligonucleosomes as substrate; top concentration 80 μM
Chain of Y641N EZH2 (Q15910 whole entry Y641N): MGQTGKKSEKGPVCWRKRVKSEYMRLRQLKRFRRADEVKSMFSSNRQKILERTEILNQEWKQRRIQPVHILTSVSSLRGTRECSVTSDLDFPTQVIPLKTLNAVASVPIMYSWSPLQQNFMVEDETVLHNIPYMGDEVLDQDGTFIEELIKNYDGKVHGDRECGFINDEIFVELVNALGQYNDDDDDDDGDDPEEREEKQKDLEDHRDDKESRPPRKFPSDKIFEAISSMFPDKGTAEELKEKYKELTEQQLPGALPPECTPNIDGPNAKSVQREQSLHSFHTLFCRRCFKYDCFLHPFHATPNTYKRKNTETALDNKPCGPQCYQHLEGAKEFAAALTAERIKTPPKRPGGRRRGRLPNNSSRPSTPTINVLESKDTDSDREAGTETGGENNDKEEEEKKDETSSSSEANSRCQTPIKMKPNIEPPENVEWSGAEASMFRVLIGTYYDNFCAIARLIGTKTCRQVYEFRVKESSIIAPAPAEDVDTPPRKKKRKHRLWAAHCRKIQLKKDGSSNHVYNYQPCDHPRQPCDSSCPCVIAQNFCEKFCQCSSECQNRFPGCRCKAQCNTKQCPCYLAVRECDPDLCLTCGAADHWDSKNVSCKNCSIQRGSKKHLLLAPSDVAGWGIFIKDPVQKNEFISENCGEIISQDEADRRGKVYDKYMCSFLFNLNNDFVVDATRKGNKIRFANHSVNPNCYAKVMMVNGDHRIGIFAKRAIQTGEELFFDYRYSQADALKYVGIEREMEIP
Chain of Y641N EZH2 (O75530 whole entry partner): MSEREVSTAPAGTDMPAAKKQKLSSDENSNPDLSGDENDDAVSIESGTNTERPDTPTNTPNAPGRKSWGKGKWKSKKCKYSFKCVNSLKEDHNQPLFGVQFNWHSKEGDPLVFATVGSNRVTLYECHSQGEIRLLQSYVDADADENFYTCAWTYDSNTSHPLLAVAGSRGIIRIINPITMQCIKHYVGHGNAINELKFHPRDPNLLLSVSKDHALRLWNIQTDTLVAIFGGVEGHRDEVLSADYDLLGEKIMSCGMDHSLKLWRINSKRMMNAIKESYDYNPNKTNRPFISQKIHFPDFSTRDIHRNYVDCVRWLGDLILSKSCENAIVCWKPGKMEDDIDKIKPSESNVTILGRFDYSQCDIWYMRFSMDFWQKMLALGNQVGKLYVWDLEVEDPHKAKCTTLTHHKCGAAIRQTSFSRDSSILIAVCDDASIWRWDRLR
Chain of Y641N EZH2 (Q15022 whole entry partner): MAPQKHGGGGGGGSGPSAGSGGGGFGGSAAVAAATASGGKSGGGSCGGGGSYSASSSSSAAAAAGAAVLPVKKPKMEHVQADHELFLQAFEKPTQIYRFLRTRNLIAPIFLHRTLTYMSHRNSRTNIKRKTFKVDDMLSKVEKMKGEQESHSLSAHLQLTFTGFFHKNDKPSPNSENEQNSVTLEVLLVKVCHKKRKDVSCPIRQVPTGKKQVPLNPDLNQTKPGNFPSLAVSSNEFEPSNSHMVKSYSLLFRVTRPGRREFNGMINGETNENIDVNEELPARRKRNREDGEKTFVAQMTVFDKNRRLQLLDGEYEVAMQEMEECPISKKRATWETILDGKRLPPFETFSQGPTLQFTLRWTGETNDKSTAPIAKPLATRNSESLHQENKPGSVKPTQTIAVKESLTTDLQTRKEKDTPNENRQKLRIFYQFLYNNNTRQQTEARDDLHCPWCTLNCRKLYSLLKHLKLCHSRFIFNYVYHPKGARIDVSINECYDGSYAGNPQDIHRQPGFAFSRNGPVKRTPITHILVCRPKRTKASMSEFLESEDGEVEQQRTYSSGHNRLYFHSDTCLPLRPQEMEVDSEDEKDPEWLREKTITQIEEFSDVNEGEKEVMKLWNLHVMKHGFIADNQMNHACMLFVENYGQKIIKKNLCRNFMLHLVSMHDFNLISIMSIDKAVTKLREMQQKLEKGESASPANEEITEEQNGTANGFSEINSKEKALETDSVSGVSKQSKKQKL
Protocol: as §1, §2
Assay for Y641N EZH2 was performed as above using reconstituted H3K27Me2 oligonucleosomes as substrate.

Chain of EZH2 (Q15910 whole entry): as the sequence (Q15910 whole entry Y641N) above, with N641Y counted along it
Chain of EZH2 (O75530 whole entry partner): as the sequence (O75530 whole entry partner) above
Chain of EZH2 (Q15022 whole entry partner): as the sequence (Q15022 whole entry partner) above

Compound	IC50 (EZH2) [µM]	IC50 (Y641N EZH2) [µM]
Cc1cc(C)c(CNC(=O)c2ccn(C(C)C)c(=O)c2)c(=O)[nH]1 [Compound I-14, N-((2-hydroxy-4,6-dimethylpyridin-3-yl)methyl)-1-isopropyl-2-oxo-1,2-dihydropyridine-4-carboxamide]	1 to 10	> 80
COC(C)(C)c1ccc(C(=O)NCc2c(C)cc(C)[nH]c2=O)cc1 [Compound I-3, N-((2-hydroxy-4,6-dimethylpyridin-3-yl)methyl)-4-(2-methoxypropan-2-yl)benzamide]	1 to 10	> 10
Cc1cc(C)c(CNC(=O)c2ccc(C(C)OCC(C)C)cc2)c(=O)[nH]1 (stereo not drawn) [Compound I-8, N-((2-hydroxy-4,6-dimethylpyridin-3-yl)methyl)-4-(1-isobutoxyethyl)benzamide]	< 1	1 to 10
Cc1cc(C)c(CNC(=O)c2ccc(COC(C)C)cc2)c(=O)[nH]1 [Compound I-6]	> 10	> 10
Cc1cc(C)c(CNC(=O)c2ccc(C(C)C(C)C)cc2)c(=O)[nH]1 (stereo not drawn) [Compound I-9, N-((2-hydroxy-4,6-dimethylpyridin-3-yl)methyl)-4-(3-methylbutan-2-yl)benzamide]	< 1	1 to 10
Cc1cc(C)c(CNC(=O)c2ccc3c(c2)OCC3C)c(=O)[nH]1 (stereo not drawn) [Compound I-12]	1 to 10	> 80
Cc1cc(C)c(CNC(=O)c2ccc(C(C)C)cc2C)c(=O)[nH]1 [Compound I-1, N-((2-hydroxy-4,6-dimethylpyridin-3-yl)methyl)-4-isopropyl-2-methylbenzamide]	1 to 10	1 to 10
CC(=O)NC(C)c1ccc(C(=O)NCc2c(C)cc(C)[nH]c2=O)cc1 (stereo not drawn) [Compound I-29, 4-(1-acetamidoethyl)-N-((2-hydroxy-4,6-dimethylpyridin-3-yl)methyl)benzamide]	> 80	> 80
Cc1cc(C)c(CNC(=O)c2ccc(C(C)C)cc2Cl)c(=O)[nH]1 [Compound I-2, 2-chloro-N-((2-hydroxy-4,6-dimethylpyridin-3-yl)methyl)-4-isopropyl benzamide]	< 1	1 to 10
Cc1cc(C)c(CNC(=O)c2ccc(C(C)C)c(Oc3ccccc3)c2)c(=O)[nH]1 [Compound I-11, N-((2-hydroxy-4,6-dimethylpyridin-3-yl)methyl)-4-isopropyl-3-phenoxy benzamide]	1 to 10	> 80
CCOC(C)c1ccc(C(=O)NCc2c(C)cc(C)[nH]c2=O)cc1 (stereo not drawn) [Compound I-7, 4-(1-ethoxyethyl)-N-((2-hydroxy-4,6-dimethylpyridin-3-yl)methyl)benzamide]	< 1	1 to 10
Cc1cc(C)c(CNC(=O)c2ccc(C(C)(C)O)cc2)c(=O)[nH]1 [Compound I-20, N-((2-hydroxy-4,6-dimethylpyridin-3-yl)methyl)-4-(2-hydroxypropan-2-yl)benzamide]	> 10	> 80
Cc1cc(C)c(CNC(=O)c2ccc(C(C)OC(C)C)cc2)c(=O)[nH]1 (stereo not drawn) [Compound I-5, N-((2-hydroxy-4,6-dimethylpyridin-3-yl)methyl)-4-(1-isopropoxyethyl)benzamide]	< 1	1 to 10
CCCC(C)c1ccc(C(=O)NCc2c(C)cc(C)[nH]c2=O)cc1 (stereo not drawn) [Compound I-10, N-((2-hydroxy-4,6-dimethylpyridin-3-yl)methyl)-4-(pentan-2-yl)benzamide]	< 1	1 to 10
COC(C)c1ccc(C(=O)NCc2c(C)cc(C)[nH]c2=O)cc1 (stereo not drawn) [Compound I-4, N-((2-hydroxy-4,6-dimethylpyridin-3-yl)methyl)-4-(1-methoxyethyl)benzamide]	< 1	1 to 10
